Marks after values point to notes of the source that are not given here.
Tests used:
[1] = tested on: C57bl/6 male mice, 17-18-month old; assay: Behavioral test of working memory, T-maze spontaneous alternation (SA-task) in elderly mice; type: in vivo; details: for SA-task relative to vehicles (mean percentage of alternation relative to vehicles over the seven trials): 30 min before T-maze, 17-18-month old mice; for promnesiant effect (increase of total alternation, FIG. 2) / total alternation in T-maze (FIG. 2): elderly mice
Source text: The alternating sequential test is widely used to assess spatial working memory in mice (Beracochea D. J. and Jaffard R., Behav. Neurosci. 101 (1987) 187-97). Spontaneous alternation is the innate tendency of rodents to alternate their choices to enter into the compartments of arrival of a T-maze device, over successive trials. To alternate during a given trial N, the animal must remember the choice made selectively in test N−1, so the decline in alternating will reflect the phenomenon of oblivion. The response in alternating is performance measure. Sequential alternating assess more specifically the sensitivity to interference, a major factor in oblivion.
The experiment took place in a T-maze (50 cm×10 cm×25 cm). All the subjects (C57bl/6 male mice, 17-18-month old, n=9) were given 7 successive trials separated by a 90-s intertrial interval. To begin a trial, the mouse was placed in the start box for 90 s before the door to the stem was opened. When the subject entered one of the goal arms, the door to that arm was closed. The chosen arm and the time that elapsed between opening the door and the arrival to the end of the chosen arm (task achievement time) were registered. Following a 30-s confinement period in the chosen arm, the animal was removed and placed in the start box for a new trial. Between each test, the unit was cleaned with water and alcohol to avoid olfactory detection. An alternation response was considered each time the subject entered the arm opposite to the one visited on the immediately previous trial. Alternation rate was calculated taking into account the 6 successive trials, and expressed in percentage relative to the maximal alternation rate of 100% (obtained when the subject never returned into the same arm for two consecutive trials).
C57BL/6 mice of 17 to 18 months (“elderly” mice) were intraperitoneally injected with a solution of NaCl (vehicle), donepezil (DZP), meclofenamic acid (MFA) or a combination of these two latter compounds, 30 minutes before T-maze experiment.
Thirty minutes after treatment (NaCl, donepezil, MFA), “elderly” mice are placed in the T-maze device. The percentage of alternation was measured for 7 consecutive trials, 50% corresponding to a random alternation.

[2] = tested on: male C57bl/6 mice; assay: Electro-encephalographic recording of hippocampal theta activity in mice; type: in vivo; details: for EEG Relative power to vehicles (relative power of hippocampal theta rhythm): n=7
Protocol: Electrophysiological effects of donepezil were evaluated by analysis of hippocampal electroencephalographic activity (EEG) as described previously in WO2010/029131. Briefly, the assay is as follows:
Two groups of male C57bl/6 mice (seven mice from 4 to 5 month old and seven mice from 17 to 18 month old) were pre-implanted with bilateral hippocampal bipolar electrodes under isoflurane anaesthesia. A two-week period of recovery was realized before recordings.
Different intraperitoneal treatments were performed by circular combination of 7 mice per treatment (donepezil 0.1 and 0.3 mg/kg, meclofenamic 1 mg/kg, donepezil 0.1 mg/kg+MFA 1 mg/kg).
EEG measures were performed on different batches of awoke mice (previously implanted and tamed) by recordings two hours after injection. The spectral analysis is carried out by Fourier transform (FFT) and allows the calculation of the relative powers for each Hertz and each second. FFT data are then averaged minute by minute and reported to control solvent recording realized on the day before in strictly identical experimental conditions. The spectral powers of two hippocampal electrodes are then averaged between 3 and 12 Hertz and represented hourly.
At day 1, saline was administered intraperitoneally to “adult” or “elderly” mice (n=7), and θ-hippocampal activity was measured for two consecutive hours. On day 2, donepezil alone or in combination with MFA is injected, and θ-hippocampal activity is related to that measured on day 1.

[3] = Wagner C. et al 2007; cited from earlier work
[4] = tested on: rodents; details: MFA 1 mg/kg, previously described; cited from earlier work

Compound	SA-task relative to vehicles (mean percentage of alternation relative to vehicles over the seven trials) ([1]; donepezil 0.1 mg/kg i.p.)	promnesiant effect (increase of total alternation, FIG. 2) ([1]; donepezil 0.1 mg/kg i.p.)	alternation by blocks of two trials (FIG. 3), memory interference ([1]; donepezil 0.1 mg/kg i.p., third block (trials 6 and 7))	SA-task relative to vehicles (mean percentage of alternation relative to vehicles over the seven trials) ([1]; donepezil 0.3 mg/kg i.p., p<0.01)	promnesiant effect (increase of total alternation, FIG. 2) ([1]; donepezil 0.3 mg/kg i.p.)	promnesiant effect (increase of total alternation, FIG. 2) ([1]; donepezil 1 mg/kg i.p.)	total alternation in T-maze (FIG. 2) ([1]; donepezil alone 0.3 mg/kg i.p.)	total alternation in T-maze (FIG. 2) ([1]; donepezil alone 1 mg/kg i.p.)	response of θ-hippocampal activity (FIG. 1) ([2]; 4-5-month old mice, donepezil 0.1 mg/kg i.p.)	response of θ-hippocampal activity (FIG. 1) ([2]; 4-5-month old mice, donepezil 0.3 mg/kg i.p.)	response of θ-hippocampal activity (FIG. 1) ([2]; 17-18-month old mice, donepezil 0.3 mg/kg i.p., second hour of recording)	EEG Relative power to vehicles (relative power of hippocampal theta rhythm) ([2]; donepezil 0.1 mg/kg intraperitoneal)	EEG Relative power to vehicles (relative power of hippocampal theta rhythm) ([2]; donepezil 0.3 mg/kg intraperitoneal)	dose at which the anti-inflammatory effect is observed in vivo [3]	effect on the electroencephalographic signal [4]	promnesiant effect (increase of total alternation, FIG. 2) ([1]; MFA alone 1 mg/kg i.p.)	alternation by blocks of two trials (FIG. 3) ([1]; MFA alone 1 mg/kg i.p., three blocks of trials)	effect on EEG (θ-hippocampal activity) ([2]; MFA alone 1 mg/kg i.p.)
COc1cc2c(cc1OC)C(=O)C(CC1CCN(Cc3ccccc3)CC1)C2 (stereo not drawn) [donepezil, 2,3-dihydro-5,6-dimethoxy-2-[[1-(phenylmethyl)-4-piperidinyl]methyl]-1H-i-nden-1-one]	35%	no significant promnesiant effect	partially counteract the interference phenomenon	48%**	significant promnesiant effect	significant promnesiant effect	around 75%	around 75%	do not respond significantly	do not respond significantly	an effect	1	1					
Cc1ccc(Cl)c(Nc2ccccc2C(=O)O)c1Cl [MFA, Benzoic 2-[(2,6-di-chloro-3-phenyl)amino] acid]														approximately 5 mg/kg/day	not affecting the electroencephalographic signal	no promnesiant effect significant	no significant effect	no effect by its own

Source: patent publication US10765670B2, “Use of anti-connexin agents for enhancing the therapeutic effect of acetylcholinesterase inhibitors” (COMMISSARIAT A L'ENERGIE ATOMIQUE ET AUX ENERGIES …, priority 2011, dated 2020)
